In patent publication US12478677B2, “Tunable luminescent organic salts for enhanced imaging and photodynamic therapy” (BOARD OF TRUSTEES OF MICHIGAN STATE UNIVERSITY, priority 2017, dated 2025):
Read-outs that look alike come from different tables or passages of the source.

What was measured:
A549 cells [1] = assay: Viability studies (trypan blue staining and cell counting) with or without IR excitation; assay type: cell-based, human; conditions: for IC50: linear regression analysis; for Toxicity in words, dark and light: with or without IR (850 nm) excitation; for Concentration at which still non-toxic: cells
Description: The cell lines human lung carcinoma (A549), metastatic human melanoma (WM1158) and Vemurafenib-resistant melanoma (Sk-Mel-28-Vem^R) are used. Sk-Mel-28-Vem^R is generated by culturing a parental melanoma cell lines in the presence of 2 μM Vemurafenib for 2 months. Acquired Vemurafenib resistance is defined by >1 log change in IC50 between nonresistant and resistant cell lines. Resistance is maintained through media supplementation with 2 μM Vemurafenib, which is changed every 48 hours. All cells are cultured in DMEM without pyruvate with 10% heat inactivated fetal bovine serum supplemented with glutamine and penicillin/streptomycin, and incubated in 37° C. with 5% CO2.
A549 and WM1158 cells are seeded at a density of 50,000 cells per well in 6-well tissue culture plates. After 24 hours of incubation, media is aspirated and replaced with media containing luminescent dyes at indicated concentrations. Each well is irradiated with an 850 nm LED lamp with an illumination rate of 526 mW/cm^2 for an hour in the incubator, and control cells are left in a dark incubator without irradiation. For studies with Cy7, a 740 nm LED lamp is used instead of an 850 nm, but with a similar illumination flux. Immediately after irradiation, the media is replenished with fresh dye-laced media and allowed to incubate for another 24 hours. […] Viable cell number is determined at 24 and 96 hours using trypan blue staining and a Nexcelom Cellometer Auto T4 cell counter. All assays are done with 3 biological replicates. The fold change in cell proliferation over days of treatment was calculated using the following equation.

[2] = Nanoparticle aggregation size from SEM images; assay type: physicochemical; conditions: no observable precipitation
Description: FIG. 6. is a graph showing exemplary nanoparticle aggregation size distribution measured from SEM images (inset, scale bar=100 nm) of CyTPFB. Average aggregate size is 5.6±1.8 nm with no observable precipitation. […] This is achieved by cation-anion pairs of luminescent organic salts that can be modulated to be either non-toxic for enhanced imaging, or phototoxic for improved PDT. […] IR polymethine cyanine dyes, which have been used as effective theranostics are described. […] This is thought to occur through a mechanism mitigated by tumor vascularization, increased retention in cancer cells, and mitochondrial depolarization. Once in the cell, they accumulate in the mitochondria and lysosomes, where irradiation induces generation of cytotoxic oxygen species. A strategy is described for preventing or inhibiting salt dissociation in cells: aggregates are formed via introduction of the salt into an aqueous media by a solvent vehicle, forming particles with diameters of about 5 nm in size with no precipitation observed. […] This is confirmed by high resolution mass spectrometry, electron microscopy, and UV-Vis spectroscopy. […] Normalized absorption data are sown in FIGS. 7A, 7B, and 7C. This is likely due to steric effects, where if the counterion radius is too small it is not able to protect the nanoparticle stability. […]

A549 cells [3] = assay: Luminescent imaging of cells; assay type: cell-based, human
Description: Images are obtained using a Leica DMi8 microscope with a PE4000 LED light source, DFC9000GT camera, and LAS X imaging system. A549 cells are seeded in 3 cm tissue culture plates at a density of 50,000 cells per well in DMEM media containing luminescent organic salts at indicated concentrations. The cells incubate for 2 days at 37° C. with 5% CO2 until the day of imaging. For live cell imaging, the media is aspirated and replaced with fresh dye-free media to reduce background noise. For fixed cell imaging, cells are grown on 0.5 mm coverslips within 3 cm plates. The media is aspirated and the cells are washed with phosphate buffered saline (PBS) before being submerged in cold methanol and incubated at −20° C. for 15 minutes. The cells are then washed with PBS 5 times, and the coverslips are then mounted to slides using DAPI with Fluoromount-G.

[4] = Salt integrity and aggregation in cell media (mass spectrometry, electron microscopy, UV-Vis); assay type: physicochemical; conditions: high resolution mass spectrometry, electron microscopy, UV-Vis spectroscopy
Description: FIGS. 7A-7C. […] Organic salts were first dissolved in DMSO and then diluted in water, forming nanoparticles. […] Combinations of H- and J-aggregation of organic salts can be seen by blue-shifted peaks (lower wavelength) and red-shifted peaks (higher wavelength), respectively. The nanoparticles with small hard anions redissolve in cell media likely due to sterics. […] This is achieved by cation-anion pairs of luminescent organic salts that can be modulated to be either non-toxic for enhanced imaging, or phototoxic for improved PDT. […] IR polymethine cyanine dyes, which have been used as effective theranostics are described. […] This is thought to occur through a mechanism mitigated by tumor vascularization, increased retention in cancer cells, and mitochondrial depolarization. Once in the cell, they accumulate in the mitochondria and lysosomes, where irradiation induces generation of cytotoxic oxygen species. A strategy is described for preventing or inhibiting salt dissociation in cells: aggregates are formed via introduction of the salt into an aqueous media by a solvent vehicle, forming particles with diameters of about 5 nm in size with no precipitation observed. […] This is confirmed by high resolution mass spectrometry, electron microscopy, and UV-Vis spectroscopy. […] Normalized absorption data are sown in FIGS. 7A, 7B, and 7C. This is likely due to steric effects, where if the counterion radius is too small it is not able to protect the nanoparticle stability. This can be characterized by the volume-averaged effective spherical radius of the counterions, where the cutoff is at about 0.275 nm.

SMILES: CCN1C(=CC=C2CCCC(C=CC3=[N+](CC)c4ccc5ccccc5c4C3(C)C)=C2Cl)C(C)(C)c2c1ccc1ccccc21.Fc1c(F)c(F)c([B-](c2c(F)c(F)c(F)c(F)c2F)(c2c(F)c(F)c(F)c(F)c2F)c2c(F)c(F)c(F)c(F)c2F)c(F)c1F [CyTPFB]
- IC50 (A549 cells [1]; A549 cells, 850 nm irradiation, read-out: IC50 850 nm): 11 µM
- Phototoxicity with IR excitation, in words (A549 cells [1]; A549 cells, IR (850 nm) excitation): non phototoxic to orders of magnitude higher concentrations
- IC50 (A549 cells [1]; A549 cells, dark, no irradiation, read-out: IC50 Dark): 126 µM
- Fold concentration relative to CyPF6 at which still non-toxic (A549 cells [1]; A549 cells, listed as Cy^+ paired with TPFB^−): greater than 75 fold
- Toxicity in words, dark and light (A549 cells [1]; A549 cells): non-toxic
- Toxicity in words, dark and light (A549 cells [1]; A549 cells, listed as Cy^+ paired with TPFB): not toxic to cells in the dark and in the light
- Toxicity in the dark, in words (A549 cells [1]; A549 cells, without IR excitation): deactivates the dark cellular toxicity
- Concentration at which still non-toxic (A549 cells [1]): 20 µM
- Concentration at which still non-toxic (A549 cells [1]; listed as Cy^+ paired with TPFB^−): 126 µM
- Average aggregate size [2]: 5.6±1.8 nm
- Cellular localization versus concentration in media, in words (A549 cells [3]): localize inside cells proportionally to the initial introduced concentration in the cellular media
- Integrity of salt pairing in cellular environments [4]: maintained in cellular environments
